Results from ChEMBL document CHEMBL6120968, “Discovery of Thiadiazoleamide Derivatives as Potent, Selective, and Orally Available Antagonists Disrupting Androgen Receptor Homodimer” (J Med Chem, 2024).
Activity calls are given as the source filed them. The rule behind the calls is not given here.

Assays:
[1] = Downregulation of PSA level in human LNCaP cells transfected with ARR2PB-eGFP incubated for 24 hrs by Western blot analysis
LNCaP [2] = assay: Antiproliferative activity against human LNCaP cells assessed as survival rate incubated for 3 days by MTT assay; conditions: 72 h
[3] = biological target: Voltage-gated inwardly rectifying potassium channel KCNH2 (Homo sapiens, UniProt Q12809); assay: (§1) Inhibition of hERG at 10 uM relative to control; format: toxicity; conditions: 10 µM
Sequence of Voltage-gated inwardly rectifying potassium channel KCNH2 (Q12809 whole entry): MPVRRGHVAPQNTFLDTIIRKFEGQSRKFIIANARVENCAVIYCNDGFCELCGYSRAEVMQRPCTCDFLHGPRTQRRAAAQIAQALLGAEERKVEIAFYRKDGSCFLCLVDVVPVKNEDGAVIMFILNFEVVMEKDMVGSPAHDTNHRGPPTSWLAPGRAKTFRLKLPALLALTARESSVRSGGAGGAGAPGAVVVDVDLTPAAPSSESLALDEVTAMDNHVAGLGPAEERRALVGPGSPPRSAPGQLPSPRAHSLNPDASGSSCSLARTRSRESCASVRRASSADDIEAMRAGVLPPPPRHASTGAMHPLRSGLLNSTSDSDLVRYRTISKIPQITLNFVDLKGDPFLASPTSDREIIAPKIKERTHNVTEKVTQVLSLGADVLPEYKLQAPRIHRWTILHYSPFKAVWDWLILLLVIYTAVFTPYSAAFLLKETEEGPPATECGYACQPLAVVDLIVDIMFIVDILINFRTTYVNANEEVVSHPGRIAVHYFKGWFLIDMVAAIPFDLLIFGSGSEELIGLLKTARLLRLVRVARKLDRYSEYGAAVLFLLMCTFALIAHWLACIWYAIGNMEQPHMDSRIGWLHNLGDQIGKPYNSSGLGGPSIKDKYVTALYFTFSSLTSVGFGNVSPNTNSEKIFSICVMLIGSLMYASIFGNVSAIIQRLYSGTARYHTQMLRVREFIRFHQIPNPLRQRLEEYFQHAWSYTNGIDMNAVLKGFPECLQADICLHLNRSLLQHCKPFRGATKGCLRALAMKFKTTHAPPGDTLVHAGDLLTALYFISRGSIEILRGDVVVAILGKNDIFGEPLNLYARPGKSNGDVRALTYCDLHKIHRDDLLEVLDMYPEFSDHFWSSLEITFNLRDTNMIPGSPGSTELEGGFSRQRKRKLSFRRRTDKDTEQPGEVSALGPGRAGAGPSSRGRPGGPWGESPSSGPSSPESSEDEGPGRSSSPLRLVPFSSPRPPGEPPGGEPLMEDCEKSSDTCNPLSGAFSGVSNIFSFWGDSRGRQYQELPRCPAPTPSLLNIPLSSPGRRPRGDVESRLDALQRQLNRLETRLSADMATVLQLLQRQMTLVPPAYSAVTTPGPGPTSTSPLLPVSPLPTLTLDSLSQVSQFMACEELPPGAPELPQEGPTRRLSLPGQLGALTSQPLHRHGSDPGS

LNCaP C4-2B = assay: Antiproliferative activity against human LNCaP C4-2B cells assessed as survival rate incubated for 3 days by MTT assay; conditions: 72 h
LNCaP C4-2 = assay: Antiproliferative activity against human LNCaP C4-2 cells assessed as survival rate incubated for 3 days by MTT assay; conditions: LNCaP C4-2, 72 h
LNCaP [4] = assay: Antiproliferative activity against human LNCaP cells assessed as inhibition of cell proliferation incubated for 3 days by MTT assay; format: functional, cell-based; conditions: 72 h
Androgen receptor = biological target: T1, Androgen receptor (Homo sapiens, UniProt P10275); assay: Antagonist activity at Androgen receptor in human LNCaP cells transfected with ARR2PB-eGFP incubated for 3 days by synergy H1 microplate reader analysis; format: cell-based
T1 sequence (P10275 whole entry): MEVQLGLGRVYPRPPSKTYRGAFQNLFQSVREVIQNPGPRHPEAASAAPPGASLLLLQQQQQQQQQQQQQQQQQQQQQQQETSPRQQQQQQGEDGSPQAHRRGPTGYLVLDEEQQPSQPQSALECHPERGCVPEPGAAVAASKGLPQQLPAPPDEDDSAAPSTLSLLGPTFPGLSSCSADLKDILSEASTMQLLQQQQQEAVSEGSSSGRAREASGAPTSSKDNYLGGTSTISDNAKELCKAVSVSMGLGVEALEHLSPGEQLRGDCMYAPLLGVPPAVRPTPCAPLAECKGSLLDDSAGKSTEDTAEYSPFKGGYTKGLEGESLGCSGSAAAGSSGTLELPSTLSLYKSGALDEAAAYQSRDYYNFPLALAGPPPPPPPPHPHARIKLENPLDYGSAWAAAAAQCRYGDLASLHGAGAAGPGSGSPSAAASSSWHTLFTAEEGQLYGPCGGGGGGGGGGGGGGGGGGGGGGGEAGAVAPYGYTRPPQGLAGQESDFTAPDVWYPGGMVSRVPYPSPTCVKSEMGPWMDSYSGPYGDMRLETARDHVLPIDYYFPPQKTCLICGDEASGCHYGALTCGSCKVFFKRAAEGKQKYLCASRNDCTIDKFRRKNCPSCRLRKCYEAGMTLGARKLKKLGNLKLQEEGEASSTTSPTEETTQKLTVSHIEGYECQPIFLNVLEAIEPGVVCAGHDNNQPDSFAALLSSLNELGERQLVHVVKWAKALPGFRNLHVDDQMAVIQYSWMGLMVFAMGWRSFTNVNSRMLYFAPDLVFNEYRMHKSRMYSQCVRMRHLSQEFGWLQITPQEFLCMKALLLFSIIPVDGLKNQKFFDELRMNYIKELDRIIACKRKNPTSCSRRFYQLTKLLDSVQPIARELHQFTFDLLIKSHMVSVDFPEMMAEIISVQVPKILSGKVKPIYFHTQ

hERG (KCNH2) = hERG (KCNH2) (Homo sapiens, UniProt Q12809); assay: as §1; format: toxicity
Sequence of hERG (KCNH2) (Q12809 whole entry): as the sequence (Q12809 whole entry) above

NIH3T3 = assay: Antiproliferative activity against mouse 3T3 cells assessed as reduction in cell viability incubated for 3 days by MTT assay; format: toxicity, cell-based; conditions: nih3t3, 72 h, time 3 day
LNCaP [5] = assay: Downregulation of FKBP5 level in DHT-induced human LNCaP cells at 0.1 to 1 uM incubated for 24 hrs by Western blot analysis; format: functional, cell-based; conditions: dose 0.1-1 µM
[6] = Antagonist activity at Androgen receptor F877L/T878A double mutant in human HEK293T cells cotransfected with MMTV-luc and renilla plasmid incubated for 24 hrs by Dual luciferase assay; format: cell-based; conditions: HEK-293T

Row | SMILES | IC50 (Androgen receptor) | also measured
1 | CNC(=O)c1ccc(N2C(=S)N(c3ccc(C#N)c(C(F)(F)F)c3)C(=O)C2(C)C)cc1F [ENZALUTAMIDE] |  | IC50 [1]: 520 nM; IC50 (LNCaP [2]): 27700 nM; inhibition (INH) [3]: Not_active; IC50 (LNCaP C4-2B): 16300 nM; IC50 (LNCaP C4-2): 27700 nM; IC50 (LNCaP [4]): 12400 nM
2 | Cc1oc(-c2cccc(C#N)c2)cc1C(=O)Nc1nc(CN2CCOCC2)ns1 | 16 nM | inhibition at 10 µM (hERG (KCNH2)): 47.8%
3 | Cc1oc(-c2cc(C(F)(F)F)ccc2Cl)cc1C(=O)Nc1nc(CN2CCOCC2)ns1 | 29 nM | inhibition at 10 µM (hERG (KCNH2)): 8%; IC50 (LNCaP [4]): 3270 nM
4 | Cc1oc(-c2cc(F)cc(C(F)(F)F)c2)cc1C(=O)Nc1nc(CN2CCOCC2)ns1 |  | inhibition at 10 µM (hERG (KCNH2)): 16.4%; Activity (NIH3T3): Non-toxic
5 | Cc1oc(-c2cc(C(F)(F)F)ccc2F)cc1C(=O)Nc1nc(CN2CCOCC2)ns1 | 18 nM | inhibition at 10 µM (hERG (KCNH2)): 21%; IC50 (LNCaP [4]): 2750 nM
6 | Cc1oc(-c2cccc(C(F)(F)F)c2Cl)cc1C(=O)Nc1nc(CN2CCOCC2)ns1 | 860 nM | 
7 | Cc1oc(-c2cccc(C(F)(F)F)c2F)cc1C(=O)Nc1nc(CN2CCOCC2)ns1 | 200 nM | 
8 | Cc1oc(-c2cc(Cl)cc(C(F)(F)F)c2)cc1C(=O)Nc1nc(CN2CCOCC2)ns1 | 260 nM | 
9 | Cc1oc(-c2ccc(F)c(C(F)(F)F)c2)cc1C(=O)Nc1nc(CN2CCOCC2)ns1 | 26 nM | 
10 | Cc1oc(-c2cccc(C(F)(F)F)c2)cc1C(=O)Nc1nc(CC(C)N(C)C)ns1 (centres undefined) | 280 nM | 
11 | Cc1oc(-c2ccc(Cl)c(C(F)(F)F)c2)cc1C(=O)Nc1nc(CN2CCOCC2)ns1 | 35 nM | inhibition at 10 µM (hERG (KCNH2)): 51.3%
12 | Cc1oc(-c2cccc(OC(F)F)c2)cc1C(=O)Nc1nc(CN2CCOCC2)ns1 | 16 nM | inhibition at 10 µM (hERG (KCNH2)): 68.3%
13 | COc1cccc(-c2cc(C(=O)Nc3nc(CN4CCOCC4)ns3)c(C)o2)c1 | 22 nM | inhibition at 10 µM (hERG (KCNH2)): 36.9%
14 | CC(=O)Cc1ccc(NC(=O)c2cc(-c3cccc(C(F)(F)F)c3)oc2C)cc1 | 50000 nM | 
15 | CC(O)c1cc(C(=O)N[C@@H](C)Cn2ccc(-c3ccc(C#N)c(Cl)c3)n2)n[nH]1 (some centres undefined) [DAROLUTAMIDE] |  | IC50 [6]: 670 nM

The next lines start with results.

Row | IC50 (Androgen receptor) | SMILES | also measured
16 | 9200 nM | CC(=O)Cc1nsc(NC(=O)c2cc(-c3cccc(C(F)(F)F)c3)sc2C)n1 | 
17 | 29 nM | Cc1oc(-c2cccc(C(F)(F)F)c2)cc1C(=O)Nc1nc(CC(C)O)ns1 (centres undefined) | 
18 | 150 nM | CC(=O)Cc1nsc(NC(=O)c2cc(-c3cccc(C(F)(F)F)c3)oc2C)n1 | 
19 | 150 nM | Cc1oc(-c2cccc(C(F)(F)F)c2)cc1C(=O)Nc1nc(CN2CCCC(O)C2)ns1 (centres undefined) | 
20 | 8400 nM | CC(=O)Cc1nsc(NC(=O)c2cc(-c3cccc(C(F)(F)F)c3)oc2C(F)(F)F)n1 | 
21 | 32 nM | Cc1oc(-c2cccc(C(F)(F)F)c2)cc1C(=O)Nc1nc(CC(C)N2CCOCC2)ns1 (centres undefined) | 
22 | 450 nM | Cc1oc(-c2cccc(C(F)(F)F)c2)cc1C(=O)Nc1nc(CC(C)N2CCCCC2)ns1 (centres undefined) | 
23 | 74 nM | Cc1oc(-c2cccc(C(F)(F)F)c2)cc1C(=O)Nc1nc(CN2CCN(C)CC2)ns1 | 
24 | 61 nM | Cc1oc(-c2cccc(C(F)(F)F)c2)cc1C(=O)Nc1nc(CN2CCCC2)ns1 | 
25 | 24 nM | Cc1oc(-c2cccc(C(F)(F)F)c2)cc1C(=O)Nc1nc(CN2CCCCC2)ns1 | inhibition at 10 µM (hERG (KCNH2)): 95.5%
26 | 710 nM | CC(=O)Cc1nsc(NC(=O)c2coc(-c3cccc(C(F)(F)F)c3)c2)n1 | 
27 | 140 nM | Cc1oc(-c2cccc(C(F)(F)F)c2)cc1C(=O)Nc1nc(CN2CCC(O)CC2)ns1 | 
28 | 470 nM | Cc1oc(-c2cccc(C(F)(F)F)c2)cc1C(=O)Nc1nc(CN2CCC(O)C2)ns1 (centres undefined) | 
29 | 270 nM | Cc1oc(-c2cccc(C(F)(F)F)c2)cc1C(=O)Nc1nc(CN2CCC(C(C)(C)O)CC2)ns1 | 
30 | 36 nM | Cc1oc(-c2cccc(C(F)(F)F)c2)cc1C(=O)Nc1nc(CC(C)N2CCN(C)CC2)ns1 (centres undefined) | 
31 | 160 nM | Cc1oc(-c2cccc(C(F)(F)F)c2)cc1C(=O)Nc1nc(CN2CCC(CO)CC2)ns1 | Activity (LNCaP [5]): Active
32 | 180 nM | Cc1oc(-c2cccc(C(F)(F)F)c2)cc1C(=O)Nc1ncns1 | 
33 | 19 nM | Cc1oc(-c2cccc(OC(F)(F)F)c2)cc1C(=O)Nc1nc(CN2CCOCC2)ns1 | inhibition at 10 µM (hERG (KCNH2)): 47.3%
34 | 24 nM | Cc1oc(-c2cccc(C(F)(F)F)c2)cc1C(=O)Nc1nc(CC(C)N2CCCC2)ns1 (centres undefined) | inhibition at 10 µM (hERG (KCNH2)): 93.5%
35 | 450 nM | Cc1oc(-c2cccc(C(F)(F)F)c2)cc1C(=O)Nc1nccs1 | 
36 | 280 nM | CC(Cc1nsc(NC(=O)c2cc(-c3cccc(C(F)(F)F)c3)oc2C)n1)=C(F)F | 
